PubChem BioAssay (NCI)
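Five concentrations, 48 hours, 96-well plates. GI50: concentration for 50% inhibition of growth. The concentration for full growth arrest is given as TGI.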

Legend:
Assay in all cases: NCI-60 cell line screen, 48 h
[1] = tested on: OVCAR-4 ovarian
[2] = tested on: DLD-1 colon
[3] = tested on: A549 NSCLC
[4] = tested on: A498 renal
[5] = tested on: SN12C renal
[6] = tested on: KM12 colon
[7] = tested on: 786-0 renal
[8] = tested on: NCI-H522 lung
[9] = tested on: K-562 leukemia
[10] = tested on: UO-31 renal
[11] = tested on: SK-OV-3 ovarian
[12] = tested on: CCRF-CEM leukemia
[13] = tested on: KM20L2 colon
[14] = tested on: LOX IMVI melanoma
[15] = tested on: RXF-631 renal
[16] = tested on: SF-268 CNS
[17] = tested on: M19-MEL melanoma
[18] = tested on: MALME-3M melanoma
[19] = tested on: OVCAR-3 ovarian
[20] = tested on: SR leukemia
[21] = tested on: U251 CNS
[22] = tested on: SNB-78 CNS
[23] = tested on: SF-539 CNS
[24] = tested on: SK-MEL-5 melanoma
[25] = tested on: SF-295 CNS
[26] = tested on: SW-620 colon
[27] = tested on: UACC-257 melanoma
[28] = tested on: NCI-H23 lung
[29] = tested on: OVCAR-8 ovarian
[30] = tested on: HOP-18 NSCLC
[31] = tested on: HCT-116 colon
[32] = tested on: SNB-19 CNS
[33] = tested on: DMS 114 small cell lung
[34] = tested on: CAKI-1 renal
[35] = tested on: LXFL 529 NSCLC
[36] = tested on: SNB-75 CNS
[37] = tested on: SK-MEL-28 melanoma
[38] = tested on: RPMI-8226 leukemia
[39] = tested on: M14 melanoma
[40] = tested on: ACHN renal
[41] = tested on: DMS 273 small cell lung
[42] = tested on: HL-60(TB) leukemia
[43] = tested on: COLO 205 colon
[44] = tested on: HOP-92 NSCLC
[45] = tested on: UACC-62 melanoma
[46] = tested on: IGROV1 ovarian
[47] = tested on: HOP-62 NSCLC
[48] = tested on: HT29 colon
[49] = tested on: NCI-H460 lung
[50] = tested on: TK-10 renal
[51] = tested on: MOLT-4 leukemia
[52] = tested on: NCI-H226 lung
[53] = tested on: HCT-15 colon
[54] = tested on: HCC-2998 colon
[55] = tested on: RXF 393 renal
[56] = tested on: SK-MEL-2 melanoma
[57] = tested on: OVCAR-5 ovarian

CCOC(=O)[CH-]C(=O)C12CC3CC(CC(C3)C1)C2.CCOC(=O)[CH-]C(=O)C12CC3CC(CC(C3)C1)C2.CC[O-].CC[O-].[Ti+4]
GI50 [1]: > 100 µM
TGI [1]: > 100 µM
GI50 [2]: > 100 µM
TGI [2]: > 100 µM
GI50 [3]: > 100 µM
TGI [3]: > 100 µM
GI50 [4]: > 100 µM
TGI [4]: > 100 µM
GI50 [5]: > 100 µM
TGI [5]: > 100 µM
GI50 [6]: > 100 µM
TGI [6]: > 100 µM
GI50 [7]: > 100 µM
TGI [7]: > 100 µM
GI50 [8]: > 100 µM
TGI [8]: > 100 µM
GI50 [9]: > 100 µM
TGI [9]: > 100 µM
GI50 [10]: > 100 µM
TGI [10]: > 100 µM
GI50 [11]: > 100 µM
TGI [11]: > 100 µM
GI50 [12]: > 100 µM
TGI [12]: > 100 µM
GI50 [13]: > 100 µM
TGI [13]: > 100 µM
GI50 [14]: > 100 µM
TGI [14]: > 100 µM
GI50 [15]: > 100 µM
TGI [15]: > 100 µM
GI50 [16]: > 100 µM
TGI [16]: > 100 µM
GI50 [17]: > 100 µM
TGI [17]: > 100 µM
GI50 [18]: > 100 µM
TGI [18]: > 100 µM
GI50 [19]: > 100 µM
TGI [19]: > 100 µM
GI50 [20]: > 100 µM
TGI [20]: > 100 µM
GI50 [21]: > 100 µM
TGI [21]: > 100 µM
GI50 [22]: > 100 µM
TGI [22]: > 100 µM
GI50 [23]: > 100 µM
TGI [23]: > 100 µM
GI50 [24]: > 100 µM
TGI [24]: > 100 µM
GI50 [25]: > 100 µM
TGI [25]: > 100 µM
GI50 [26]: > 100 µM
TGI [26]: > 100 µM
GI50 [27]: > 100 µM
TGI [27]: > 100 µM
GI50 [28]: > 100 µM
TGI [28]: > 100 µM
GI50 [29]: > 100 µM
TGI [29]: > 100 µM
GI50 [30]: > 100 µM
TGI [30]: > 100 µM
GI50 [31]: > 100 µM
TGI [31]: > 100 µM
GI50 [32]: > 100 µM
TGI [32]: > 100 µM
GI50 [33]: > 100 µM
TGI [33]: > 100 µM
GI50 [34]: > 100 µM
TGI [34]: > 100 µM
GI50 [35]: > 100 µM
TGI [35]: > 100 µM
GI50 [36]: 36.9 µM
TGI [36]: > 100 µM
GI50 [37]: > 100 µM
TGI [37]: > 100 µM
GI50 [38]: > 100 µM
TGI [38]: > 100 µM
GI50 [39]: > 100 µM
TGI [39]: > 100 µM
GI50 [40]: > 100 µM
TGI [40]: > 100 µM
GI50 [41]: > 100 µM
TGI [41]: > 100 µM
GI50 [42]: > 100 µM
TGI [42]: > 100 µM
GI50 [43]: > 100 µM
TGI [43]: > 100 µM
GI50 [44]: > 100 µM
TGI [44]: > 100 µM
GI50 [45]: > 100 µM
TGI [45]: > 100 µM
GI50 [46]: > 100 µM
TGI [46]: > 100 µM
GI50 [47]: > 100 µM
TGI [47]: > 100 µM
GI50 [48]: > 100 µM
TGI [48]: > 100 µM
GI50 [49]: > 100 µM
TGI [49]: > 100 µM
GI50 [50]: > 100 µM
TGI [50]: > 100 µM
GI50 [51]: > 100 µM
TGI [51]: > 100 µM

Cc1ccc(S(=O)(=O)N/N=C2\CCCCC23CCC(=O)NC3)cc1 (stereo not drawn)
TGI [1]: > 100 µM
TGI [2]: > 100 µM
TGI [3]: > 100 µM
TGI [52]: > 100 µM
TGI [4]: > 100 µM
TGI [5]: > 100 µM
TGI [6]: > 100 µM
TGI [7]: > 100 µM
TGI [8]: > 100 µM
TGI [9]: > 100 µM
TGI [10]: > 100 µM
TGI [11]: > 100 µM
TGI [12]: > 100 µM
TGI [13]: > 100 µM
TGI [53]: > 100 µM
TGI [15]: > 100 µM
TGI [16]: > 100 µM
TGI [17]: > 100 µM
TGI [18]: > 100 µM
TGI [19]: > 100 µM
TGI [20]: > 100 µM
TGI [21]: > 100 µM
TGI [22]: > 100 µM
TGI [23]: > 100 µM
TGI [24]: > 100 µM
TGI [26]: > 100 µM
TGI [27]: > 100 µM
TGI [54]: > 100 µM
TGI [29]: > 100 µM
TGI [30]: > 100 µM
TGI [31]: > 100 µM
TGI [32]: > 100 µM
TGI [33]: > 100 µM
TGI [34]: > 100 µM
TGI [35]: > 100 µM
TGI [55]: > 100 µM
TGI [36]: > 100 µM
TGI [37]: > 100 µM
TGI [38]: > 100 µM
TGI [39]: > 100 µM
TGI [40]: > 100 µM
TGI [41]: > 100 µM
TGI [42]: > 100 µM
TGI [43]: > 100 µM
TGI [45]: > 100 µM
TGI [46]: > 100 µM
TGI [47]: > 100 µM
TGI [49]: > 100 µM
TGI [50]: > 100 µM
TGI [51]: > 100 µM
TGI [56]: > 100 µM

OCC12C=CC(C1)c1ccccc12 (stereo not drawn)
TGI [1]: > 100 µM
TGI [2]: > 100 µM
TGI [3]: > 100 µM
TGI [52]: > 100 µM
TGI [4]: > 100 µM
TGI [5]: > 100 µM
TGI [7]: > 100 µM
TGI [9]: > 100 µM
TGI [10]: > 100 µM
TGI [11]: > 100 µM
TGI [12]: > 100 µM
TGI [13]: > 100 µM
TGI [53]: > 100 µM
TGI [14]: > 100 µM
TGI [15]: > 100 µM
TGI [16]: > 100 µM
TGI [17]: > 100 µM
TGI [18]: > 100 µM
TGI [19]: > 100 µM
TGI [20]: > 100 µM
TGI [21]: > 100 µM
TGI [24]: > 100 µM
TGI [25]: > 100 µM
TGI [26]: > 100 µM
TGI [27]: > 100 µM
TGI [28]: > 100 µM
TGI [54]: > 100 µM
TGI [29]: > 100 µM
TGI [30]: > 100 µM
TGI [31]: > 100 µM
TGI [32]: > 100 µM
TGI [33]: > 100 µM
TGI [34]: > 100 µM
TGI [35]: > 100 µM
TGI [37]: > 100 µM
TGI [38]: > 100 µM
TGI [57]: > 100 µM
TGI [39]: > 100 µM
TGI [40]: > 100 µM
TGI [41]: > 100 µM
TGI [42]: > 100 µM
TGI [43]: > 100 µM
TGI [44]: > 100 µM
TGI [45]: > 100 µM
TGI [46]: > 100 µM
TGI [47]: > 100 µM
TGI [48]: > 100 µM
TGI [49]: > 100 µM
TGI [50]: > 100 µM
TGI [51]: > 100 µM
